US20230270805A1, “A COMPOSITION COMPRISING AN EXTRACT OF ALDER TREE OR THE ISOLATED COMPOUNDS THEREFROM FOR TREATING AND PREVENTING SKELETON MUSCLE-RELATED DISORDER AND THE USE THEREOF” (Sookmyung Women's University Indusutry-Academic Cooperation …, priority 2020, published 2023)

Legend:
[1] = test system: MHC; experiment: Western blot of MHC in dexamethasone-treated myotube cells (in vitro model of muscle loss); assay type: cell-based, mouse; settings: myotube cells treated with dexamethasone alone; untreated cells = 1
Description: (§1) In order to confirm the inhibitory effect of the inventive extract obtained in Example, dexamethasone was treated to myotube cell to establish in vitro model of muscle loss and following experiment was performed according to the procedure disclosed in the previous literature (Int. J. Mol. Med. 2015, 36:29).
(§2) For Western blot analysis, about 3×10^4 mouse myoblast cell cells (C2C12; CRL-1772 ATCC) were incubated in 60 mm plates for 24 hours, and various concentrations of each inventive extract (0, 1, 10, 100 ng/mL) was added to the differentiation medium for 3 days to differentiate. The protein extract was obtained from the differentiated cells using by lysis buffer [25 mM Tris-HCl (pH 7.5), 100 mM NaCl, 1% NP-40, 1% sodium deoxycholate, 0.1% sodium dodecyl sulfate (SDS), and protease inhibitor cocktail, Calbiochem, Darmstadt, Germany). The protein extract (25 μg) was performed to SDS-polyacrylamide gel electorphoresis (PAGE) and transferred to polyvinylidene fluoride (PVDF) membranes.
Primary mouse anti-MHC (sc-376157, Santa Cruz) or primary mouse anti-MAFbx (sc-166806, Santa Cruz) was conjugated to the blots at 4° C., for 12 hrs and then conjugated with anti-mouse secondary antibody conjugated to Horseradish peroxidase (goat anti-mouse IgG-HRP, sc-2005, Santa Cruz) to analyze the amount of MHC and MAFbx protein by chemiluminescence method. […]

[2] = test system: MAFbx; experiment: Western blot of MAFbx in dexamethasone-treated myotube cells (in vitro model of muscle loss); assay type: cell-based, mouse; settings: myotube cells treated with dexamethasone alone; untreated cells = 1
Description: as §1
In particular, following experiment was performed according to the procedure disclosed in the previous literature to find out whether inventive extract takes an effect on MAFbx expression during muscle protein degradation by dexamethasone treatment since the activity of MAFbx, a muscle proteolytic enzyme, is known to induce muscle protein loss (Biomed. Pharmacother. 2017, 95:1486)
as §2, with “membranes. […]” for “membranes.”

[3] = Body weight in dexamethasone animal model of muscle loss; assay type: in vivo, mouse; settings: dexamethasone 1 mg/kg s.c. alone
Description: (§3) Dexamethasone, a synthetic glucocorticoid, was injected subcutaneously into C57/BL6 mouse mice to establish an animal model of muscle loss and following experiment was performed.
(§4) To establish an in vivo model of muscle loss, 6 weeks-old male C57/BL6 mice (Raon Bio, 6 weeks old, weight range: 32-36 g) were acclimated for one-week, and then weighed animals determined to be healthy during the acclimatization period. The mice close to the average weight were selected using a simple random sampling method and were classified into five groups, namely, (a) a control group, (b) a muscle loss control group (treated with dexamethasone 1 mg/kg), (c) test sample group treated with inventive extract 250 mg/kg and dexamethasone, (d) test sample group treated with inventive extract 500 mg/kg and dexamethasone, and (e) positive control treated with oxymetholone (Celltrion Co. Ltd, ATC #A14AA05, 10 mg/kg) and dexamethasone.
(§5) The inventive Extract and oxymetholone were administered once to the mice daily for 4 weeks and dexamethasone was injected subcutaneously for 10 days from 10 days before the end of co-treatment of inventive extract and oxymetholone.
(§6) Both of inventive extract and oxymetholone were forcibly administered orally using zonde for oral administration after holding and fixing the skin of the animal's poll area, and dexamethasone was injected slowly subcutaneously after inserting a syringe into the dorsal skin fold of the animal held on the thumb and index finger, slightly aspirating whether it was injected normally, and confirming that no blood came out.
The body weight of every animal was measured once a week for 4 weeks from the day of inventive extract administration.

[4] = test system: C57/BL6 mice; experiment: Grip strength test in dexamethasone animal model of muscle loss; assay type: in vivo, mouse; settings: dexamethasone 1 mg/kg s.c. alone
Description: as §3, §4, §5, §6
The grip strength of mice was determined as follows; after grabbing the animal's tail and placing it on the grid, the front foot and body were pulled at the same speed until the front foot and body were held at the grid with the front paw, and the average value was calculated after three experimental repetitions. The determination was performed on the 14th and 28th days after the administration of test sample.

[5] = test system: C57/BL6 mice; experiment: Treadmill test in dexamethasone animal model of muscle loss; assay type: in vivo, mouse; settings: dexamethasone 1 mg/kg s.c. alone
Description: as §3, §4, §5, §6
The determination was performed on the 14th and 28th days after the administration of test sample.

[6] = test system: C57/BL6 mice; experiment: Weight of muscle mass, epididymal fat and liver in dexamethasone animal model of muscle loss; assay type: in vivo, mouse; settings: dexamethasone 1 mg/kg s.c. alone, autopsy at 4 weeks
Description: as §3, §4, §5, §6
The mice were anesthetized with anesthetic to prevent the movement of experimental animals and sacrificed to minimize pain to dissect them. All instruments used during the experiment were sterilized and disinfected and their liver and epididymis fat were harvested.
The gastrocnemius muscle and soleus muscle of the mice were separated, washed in saline, drained, and weighed.
After autopsy at 4 weeks after administration, the weight of liver and Epididymis fat was weighed to calculate weight-to-weight to compare the relative differences between the organ's weight in the groups.

C[C@@H]1C[C@H]2[C@@H]3CCC4=CC(=O)C=C[C@]4(C)[C@@]3(F)[C@@H](O)C[C@]2(C)[C@@]1(O)C(=O)CO [Dexa, dexamethasone]
MHC expression [1]: 0.7 fold
MAFbx expression [2]: 1.9 fold
body weight ([3]; 0 week): 22.33 ± 1.11 gram
body weight ([3]; 1 week): 22.84 ± 1.54 gram
body weight ([3]; 2 weeks): 23.46 ± 1.60 gram
body weight ([3]; 3 weeks): 23.57 ± 1.81 gram
body weight ([3]; 4 weeks): 23.57 ± 1.76^ab gram
grip strength ([4]; 2 weeks): 1.05 ± 0.08 N
grip strength ([4]; 4 weeks): 0.94 ± 0.12^b N
motility (treadmill) ([5]; 2 weeks): 798.85 ± 14.33 meter
motility (treadmill) ([5]; 4 weeks): 745.73 ± 30.01 meter
absolute weight, epididymal fat [6]: 0.51 ± 0.10 gram
absolute weight, calf muscle ([6]; gastrocnemius): 0.242 ± 0.014 gram
absolute weight, fluke muscle ([6]; soleus): 0.014 ± 0.002^c gram
